Test results reported in patent publication US4160829A, “Antibacterial 1,2,4-oxadiazolylacetamido cephalosporins” (Gist-Brocades N.V., priority 1972, dated 1979).
In brackets after ≈: the same amount, converted by molar mass. Read-outs that look alike come from different tables or passages of the source.

Experiments:
Bruc.melit. A 488 = test: microbe, parasite or virus in culture; assay type: cell-based; conditions: Brucella melitensis, 24 h, read-out: minimal inhibitory concentration (MIC)
Prot.mirab. L 93 = test: agar serial dilution test; assay type: cell-based, Proteus mirabilis; conditions: Proteus mirabilis
Dipl.pneum. L 54 = test: agar serial dilution test; assay type: cell-based, Diplococcus pneumoniae; conditions: Streptococcus pneumoniae, read-out: minimal inhibitory concentration (MIC)
Strep. faec. L 80 = test: agar serial dilution test; assay type: cell-based, Streptococcus faecalis; conditions: Enterococcus faecalis, read-out: minimal inhibitory concentration (MIC)
Esch.coli U 20 = test: agar serial dilution test; assay type: cell-based, Escherichia coli; conditions: Escherichia coli
Prot.rettg. A 821 = test: agar serial dilution test; assay type: cell-based, Proteus rettgeri; conditions: Providencia rettgeri, 24 h, read-out: minimal inhibitory concentration (MIC)
Staph.aureus A 321 = test: agar serial dilution test; assay type: cell-based, Staphylococcus aureus; conditions: Staphylococcus aureus, A321, 24 h, read-out: minimal inhibitory concentration (MIC)
Pseud.aerug. H 10 = test: agar serial dilution test; assay type: cell-based; conditions: read-out: minimal inhibitory concentration (MIC)
Bac.Subt.ATCC 6633 = test: agar serial dilution test; assay type: cell-based, Bacillus subtilis; conditions: Bacillus subtilis, ATCC6633, 24 h, read-out: minimal inhibitory concentration (MIC)
Past.multo. A 723 = test: agar serial dilution test; assay type: cell-based, Pasteurella multocida; conditions: Pasteurella multocida, read-out: minimal inhibitory concentration (MIC)
Prot.morg. 2241 = test: agar serial dilution test; assay type: cell-based; conditions: 24 h, read-out: minimal inhibitory concentration (MIC)
[1] = test system: Pseud.aerug. Wyeth A 1058; test: agar serial dilution test; assay type: cell-based; conditions: read-out: minimal inhibitory concentration (MIC)
Staph.aureus A 2000 [2] = test: agar serial dilution test; assay type: cell-based, Staphylococcus aureus; conditions: Staphylococcus aureus, A2000, 24 h, read-out: minimal inhibitory concentration (MIC)
Haem.infl. A 1030 [3] = test: agar serial dilution test; assay type: cell-based; conditions: 24 hours, 37° C., read-out: minimal inhibitory concentration (MIC)
Staph.aureus A 355 [4] = test: agar serial dilution test; conditions: Staphylococcus aureus, A355, 24 h
Pseud.aerug. 2396 = test: agar serial dilution test; assay type: cell-based; conditions: read-out: minimal inhibitory concentration (MIC)
Salm.dubl. P 43 = test: agar serial dilution test; assay type: cell-based, Salmonella dublin; conditions: Salmonella enterica, read-out: minimal inhibitory concentration (MIC)
Strep.haem. A 266 = test: agar serial dilution test; assay type: cell-based, Streptococcus haemolyticus; conditions: Streptococcus, read-out: minimal inhibitory concentration (MIC)
Kleb.pneum. A 809 = test: agar serial dilution test; assay type: cell-based, Klebsiella pneumoniae; conditions: Klebsiella pneumoniae, read-out: minimal inhibitory concentration (MIC)
Prot.mirab. H 3 = test: agar serial dilution test; assay type: cell-based, Proteus mirabilis; conditions: Proteus mirabilis
Shig.equir. T 3 = test: agar serial dilution test; assay type: cell-based; conditions: 24 h, 37° C., read-out: minimal inhibitory concentration (MIC)
Staph.aureus A 355 [5] = test: micro serial dilution test; assay type: cell-based, Staphylococcus aureus; conditions: Staphylococcus aureus, A355; micro serial dilution (in brackets), about 18 hours, 30° C. or 37° C.; penicillinase-producing strain; read-out: minimal inhibitory concentration (MIC)
Haem.Suis A 2096 = test: micro serial dilution test; assay type: cell-based; conditions: micro serial dilution (in brackets), about 18 hours, 30° C. or 37° C.; read-out: minimal inhibitory concentration (MIC)
Prot.mirab. A 1200 = test: agar serial dilution test; assay type: cell-based, Proteus mirabilis; conditions: Proteus mirabilis, 24 h, agar serial dilution, 24 hours, 37° C.; read-out: minimal inhibitory concentration (MIC)
Salm.typh. R 172 = test: agar serial dilution test; assay type: cell-based; conditions: 24 h, read-out: minimal inhibitory concentration (MIC)
Actinob.equ. T 3 = test: agar serial dilution test; assay type: cell-based; conditions: 24 hours, 37° C., read-out: minimal inhibitory concentration (MIC)
Strep.haem A 1088 = test: agar serial dilution test; assay type: cell-based, Streptococcus haemolyticus; conditions: Streptococcus, A1088, 24 hours, 37° C., read-out: minimal inhibitory concentration (MIC)
Staph.aureus A 2000 [6] = test: micro serial dilution test; assay type: cell-based, Staphylococcus aureus; conditions: Staphylococcus aureus, A2000, 18 h, micro serial dilution (in brackets), about 18 hours, 30° C. or 37° C.; read-out: minimal inhibitory concentration (MIC)
Staph.aureus A 2001 [7] = test: agar serial dilution test; assay type: cell-based, Staphylococcus aureus; conditions: Staphylococcus aureus, A2001, 24 h, agar serial dilution, 24 hours, 37° C.; read-out: minimal inhibitory concentration (MIC)
Staph.aureus A 2001 [8] = test: micro serial dilution test; assay type: cell-based, Staphylococcus aureus; conditions: Staphylococcus aureus, A2001, 18 h, micro serial dilution (in brackets), about 18 hours, 30° C. or 37° C.; read-out: minimal inhibitory concentration (MIC)
Bruc. Suis A 2126 = test: agar serial dilution test; assay type: cell-based; conditions: Brucella suis, 24 h, read-out: minimal inhibitory concentration (MIC)
Salm.typh. R 127 = test: micro serial dilution test; assay type: cell-based; conditions: micro serial dilution (in brackets), about 18 hours, 30° C. or 37° C.; read-out: minimal inhibitory concentration (MIC)
Text: Two drops of a stock solution of the test compound (antibiotic) in a known concentration were brought into the first hole of a test plate with 9 numbered holes with a sterile Pasteur pipette. After rinsing this pipette three times with a physiological NaCl-solution, two drops of a stock solution of the test organism in a culture medium were brought in all the holes except for hole 8. In the first hole, the solution of the tested compound had been half diluted, then by stirring the liquid in the first hole and adding two drops of this mixture to the second hole and so on until hole 8, dilutions of the test compound solution were obtained in geometrical progression. The hole 9 contained no antibiotic and served for checking the growth of the testogranism in a blank medium. The test plate was incubated at 30° C. or 37° C. for about 18 hours.

Haem.infl. A 1030 [9] = test: micro serial dilution test; assay type: cell-based; conditions: 18 h, read-out: minimal inhibitory concentration (MIC)
[10] = agar serial dilution, 24 hours, 37° C., read-out: minimal inhibitory concentration (MIC)
[11] = agar serial dilution, 24 hours, 37° C.
[12] = U20, agar serial dilution, 24 hours, 37° C., read-out: minimal inhibitory concentration (MIC)
[13] = read-out: minimal inhibitory concentration (MIC), agar serial dilution, 24 hours, 37° C., penicillinase-producing strain
[14] = 24 h, read-out: minimal inhibitory concentration (MIC), agar serial dilution, 24 hours, 37° C.

CC1(C)S[C@@H]2[C@H](NC(=O)Cc3nc(-c4c(Cl)cccc4Cl)no3)C(=O)N2[C@H]1C(=O)O [Example 11A, 6-{[3-(2,6-dichlorophenyl)-1,2,4-oxadiazol-5-yl]-acetamido}penicillanic acid] showed an MIC (Bruc.melit. A 488) of 3 µg/mL (≈ 6.37 µM), an MIC (Prot.mirab. L 93; [10]) of over 100 µg/mL and an MIC (Dipl.pneum. L 54; [11]) of 3 µg/mL (≈ 6.37 µM). The MIC (Strep. faec. L 80; [11]) was 25 µg/mL (≈ 53 µM), the MIC (Esch.coli U 20; [12]) was over 100 µg/mL and the MIC (Prot.rettg. A 821; [11]) was over 100 µg/mL. It also gave an MIC (Staph.aureus A 321; [11]) of 0.06 µg/mL (≈ 0.127 µM), an MIC (Pseud.aerug. H 10; [11]) of over 100 µg/mL and an MIC (Bac.Subt.ATCC 6633; [11]) of 0.06 µg/mL (≈ 0.127 µM). For the same compound, the MIC (Past.multo. A 723; [11]) was 3 µg/mL (≈ 6.37 µM), the MIC (Prot.morg. 2241; [11]) was over 100 µg/mL and the MIC [1, 11] was over 100 µg/mL. It also gave an MIC (Staph.aureus A 2000 [2]; [11]) of 3 µg/mL (≈ 6.37 µM), an MIC (Haem.infl. A 1030 [3]) of 100 µg/mL (≈ 212 µM) and an MIC (Staph.aureus A 355 [4]; [13]) of 3 µg/mL (≈ 6.37 µM). It also gave an MIC (Pseud.aerug. 2396; [11]) of over 100 µg/mL, an MIC (Salm.dubl. P 43; [11]) of over 100 µg/mL and an MIC (Strep.haem. A 266; [11]) of 1 µg/mL (≈ 2.12 µM). It also gave an MIC (Kleb.pneum. A 809; [11]) of over 100 µg/mL, an MIC (Prot.mirab. H 3; [10]) of over 100 µg/mL and an MIC (Shig.equir. T 3) of 25 µg/mL (≈ 53 µM).

CCc1nc(CC(=O)N[C@@H]2C(=O)N3C(C(=O)O)=C(CSc4nnc(C)s4)CS[C@H]23)no1 [41 A, Sodium 7-[5-ethyl-1,2,4-oxadiazol-3-yl-acetamido]-3-[5-methyl-1,3,4-thiadiazol-2-yl-mercaptomethyl]-3-cephem-4-carboxylate] was tested, and the MIC (Staph.aureus A 355 [5]) was 0.3 µg/mL, the MIC (Prot.mirab. L 93; [10]) was 6 µg/mL and the MIC (Dipl.pneum. L 54; [11]) was 0.75 µg/mL. For the same compound, the MIC (Strep. faec. L 80; [11]) was 50 µg/mL, the MIC (Esch.coli U 20; [12]) was 3 µg/mL and the MIC (Haem.Suis A 2096) was 15 µg/mL. For the same compound, the MIC (Prot.rettg. A 821; [11]) was 1.5 µg/mL, the MIC (Prot.mirab. A 1200) was 100 µg/mL and the MIC (Staph.aureus A 321; [11]) was 0.25 µg/mL. It also gave an MIC (Pseud.aerug. H 10; [11]) of 100 µg/mL, an MIC (Bac.Subt.ATCC 6633; [11]) of 0.25 µg/mL and an MIC (Past.multo. A 723; [11]) of 1.5 µg/mL. For the same compound, the MIC (Prot.morg. 2241; [11]) was 100 µg/mL, the MIC [1, 11] was 100 µg/mL and the MIC (Staph.aureus A 2000 [2]; [11]) was 0.5 µg/mL. It also gave an MIC (Salm.typh. R 172) of 50 µg/mL, an MIC (Actinob.equ. T 3) of 12.5 µg/mL and an MIC (Staph.aureus A 355 [4]; [13]) of 0.75 µg/mL. It also gave an MIC (Pseud.aerug. 2396; [11]) of 100 µg/mL, an MIC (Strep.haem A 1088) of 0.06 µg/mL and an MIC (Salm.dubl. P 43; [11]) of 12.5 µg/mL. It also gave an MIC (Staph.aureus A 2000 [6]) of 0.23 µg/mL, an MIC (Kleb.pneum. A 809; [11]) of 6 µg/mL and an MIC (Prot.mirab. H 3; [10]) of 100 µg/mL. It also gave an MIC (Staph.aureus A 2001 [7]) of 0.5 µg/mL, an MIC (Staph.aureus A 2001 [8]) of 0.15 µg/mL and an MIC (Bruc. Suis A 2126) of 6 µg/mL.

For CC1=C(C(=O)O)N2C(=O)[C@@H](NC(=O)[C@H](N)c3ccccc3)[C@H]2SC1 [Cefalexin, reference compound], the MIC (Bruc.melit. A 488) was 6 µg/mL (≈ 17.3 µM), the MIC (Salm.typh. R 127) was 6 µg/mL (≈ 17.3 µM) and the MIC (Prot.mirab. L 93; [14]) was 12.5 µg/mL (≈ 36 µM). The MIC (Dipl.pneum. L 54; 24 h) was 3 µg/mL (≈ 8.64 µM), the MIC (Strep. faec. L 80; 24 h) was 100 µg/mL (≈ 288 µM) and the MIC (Esch.coli U 20; U20, 24 h, read-out: minimal inhibitory concentration (MIC), agar serial dilution, 24 hours, 37° C.) was 12.5 µg/mL (≈ 36 µM). The MIC (Prot.rettg. A 821) was 12.5 µg/mL (≈ 36 µM), the MIC (Staph.aureus A 321) was 1.5 µg/mL (≈ 4.32 µM) and the MIC (Pseud.aerug. H 10; 24 h) was over 100 µg/mL. It also gave an MIC (Bac.Subt.ATCC 6633) of 0.5 µg/mL (≈ 1.44 µM), an MIC (Past.multo. A 723; 24 h) of 3 µg/mL (≈ 8.64 µM) and an MIC (Prot.morg. 2241) of over 100 µg/mL. It also gave an MIC ([1]; 24 h) of over 100 µg/mL, an MIC (Staph.aureus A 2000 [2]) of 12.5 µg/mL (≈ 36 µM) and an MIC (Staph.aureus A 355 [4]; read-out: minimal inhibitory concentration (MIC)) of 12.5 µg/mL (≈ 36 µM). It also gave an MIC (Pseud.aerug. 2396; 24 h) of over 100 µg/mL, an MIC (Salm.dubl. P 43; 24 h) of 6 µg/mL (≈ 17.3 µM) and an MIC (Strep.haem. A 266; 24 h) of 0.25 µg/mL (≈ 0.72 µM). It also gave an MIC (Kleb.pneum. A 809; 24 h) of 3 µg/mL (≈ 8.64 µM), an MIC (Haem.infl. A 1030 [9]) of 125 µg/mL (≈ 360 µM) and an MIC (Prot.mirab. H 3; [14]) of 25 µg/mL (≈ 72 µM). It also gave an MIC (Shig.equir. T 3) of 1.5 µg/mL (≈ 4.32 µM).
